Some test systems named below: ACHN renal; HT29 colon; SR leukemia; K-562 leukemia; UACC-257 melanoma; SK-OV-3 ovarian; SN12C renal; MALME-3M melanoma; M14 melanoma; OVCAR-3 ovarian; MOLT-4 leukemia.
Test in all cases: growth of human tumour cells (NCI), 48 h

Several values for one entry are separate records, joined by “and”; a condition that tells them apart may be missing. Equal entries are not always repeated.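 Assay format: 96-well plates, 48-hour exposure. GI50 = concentration required for 50% inhibition of growth. At the TGI there is no net growth.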

Regarding `CC(=O)NC1=C(NCCC(C)C)C(=O)c2ccccc2C1=O`, the TGI in the assay with ACHN renal, with HT29 colon, with SR leukemia, with K-562 leukemia, in the assay with UACC-257 melanoma and in the assay on SK-OV-3 ovarian was over 50 µM throughout. Further, the TGI in the assay on SN12C renal, in the assay with MALME-3M melanoma, with M14 melanoma, in the assay on OVCAR-3 ovarian and in the assay with MOLT-4 leukemia was over 50 µM in each case.

For the compound `C(/c1ccco1)=c1/nc(-c2ccccc2)n2c1nc1ccccc12`, the TGI with ACHN renal is over 100 µM; with HT29 colon it was over 100 µM; with SR leukemia, 43 µM; with K-562 leukemia, 68.3 µM; in the assay on UACC-257 melanoma, over 100 µM; in the assay with SK-OV-3 ovarian, over 100 µM. In addition, the TGI in the assay with SN12C renal is over 100 µM; in the assay with MALME-3M melanoma it was over 100 µM; in the assay with M14 melanoma, over 100 µM; in the assay with OVCAR-3 ovarian, over 100 µM; in the assay on MOLT-4 leukemia it was 33.5 µM.

For `CC(C)CC(=O)OC[n+]1ccc(-c2c(COC(=O)NC(C)C)c(COC(=O)NC(C)C)c3n2CCC3)cc1`, the TGI in the assay on ACHN renal, in the assay on HT29 colon, with SR leukemia, with K-562 leukemia, in the assay on UACC-257 melanoma and with SK-OV-3 ovarian was over 100 µM each time. For the same compound, the TGI in the assay with SN12C renal, in the assay on MALME-3M melanoma, with M14 melanoma, in the assay on OVCAR-3 ovarian and in the assay with MOLT-4 leukemia was over 100 µM throughout.

With `Clc1ccc(/C=C/c2nc3ccccc3s2)cc1Cl`, the TGI in the assay with ACHN renal, with HT29 colon, in the assay with SR leukemia, in the assay with K-562 leukemia, with UACC-257 melanoma and in the assay on SK-OV-3 ovarian was over 100 µM throughout. In addition, the TGI in the assay with SN12C renal, in the assay on MALME-3M melanoma, in the assay on M14 melanoma, with OVCAR-3 ovarian and in the assay on MOLT-4 leukemia was over 100 µM each time.

Consider `O=C(NNC(=O)c1ccccc1SSc1ccccc1C(=O)NNC(=O)c1ccccc1S)c1ccccc1S`, for which the TGI in the assay on ACHN renal was over 100 µM; in the assay with HT29 colon it was over 95.2 µM; in the assay on SR leukemia, over 75.3 µM; in the assay on K-562 leukemia, over 100 µM; in the assay on UACC-257 melanoma, over 95.4 µM; with SK-OV-3 ovarian, over 100 µM. The TGI in the assay on SN12C renal is over 92.6 µM; in the assay with MALME-3M melanoma, over 81.2 µM; in the assay with M14 melanoma, over 100 µM; in the assay on OVCAR-3 ovarian it was over 100 µM; in the assay with MOLT-4 leukemia, over 87 µM.

As to `CNS(=O)(=O)NNS(=O)(=O)c1ccc2ccccc2c1`, the TGI with ACHN renal, in the assay on HT29 colon, in the assay with SR leukemia, in the assay with K-562 leukemia, with UACC-257 melanoma and in the assay on SK-OV-3 ovarian was over 100 µM in each case. Moreover, the TGI with SN12C renal, in the assay on MALME-3M melanoma, in the assay with M14 melanoma, in the assay with OVCAR-3 ovarian and with MOLT-4 leukemia was over 100 µM each time.

On to `COc1ccc(C2c3cc4c(cc3OC(NNS(=O)(=O)c3ccc(C)cc3)C2C)OCO4)cc1` (configuration not stated), for which the TGI was over 100 µM with ACHN renal; over 100 µM with HT29 colon; 69.7 µM with SR leukemia; over 100 µM with K-562 leukemia; over 100 µM in the assay on UACC-257 melanoma; over 100 µM in the assay with SK-OV-3 ovarian. The TGI with SN12C renal, in the assay with MALME-3M melanoma, in the assay on M14 melanoma, in the assay on OVCAR-3 ovarian and with MOLT-4 leukemia was over 100 µM each time.

Regarding `CN(C)CC[N+]1=Nc2cccc3cccc(c23)N1`, the TGI in the assay on ACHN renal was over 100 µM; in the assay on HT29 colon, over 100 µM; with SR leukemia, 40.9 µM; in the assay with K-562 leukemia, over 63.4 µM; with UACC-257 melanoma, over 100 µM; with SK-OV-3 ovarian it was over 100 µM. Besides, the TGI with SN12C renal was over 100 µM; in the assay on MALME-3M melanoma, over 100 µM; in the assay with M14 melanoma, over 100 µM; in the assay with OVCAR-3 ovarian it was over 100 µM; in the assay with MOLT-4 leukemia, over 73.2 µM.

As for `Cc1c2cnccc2c(C)c2c1c1ccccc1n2CCCN`, the TGI with ACHN renal was 0.893 µM; in the assay with HT29 colon, 1.01 µM and 0.292 µM; with SR leukemia, 0.349 µM; with K-562 leukemia it was 0.794 µM and 0.598 µM; in the assay on UACC-257 melanoma it was 2.32 µM and 1.92 µM; in the assay with SK-OV-3 ovarian, 1.71 µM and 1.25 µM. For the same compound, the TGI was 1.36 µM and 1.1 µM in the assay with SN12C renal; 2.09 µM and 1.08 µM in the assay on MALME-3M melanoma; 0.91 µM in the assay with M14 melanoma; 1.84 µM and 0.833 µM with OVCAR-3 ovarian; 0.472 µM and 0.217 µM in the assay on MOLT-4 leukemia. Moreover, the GI50 with HT29 colon is 0.0277 µM; with K-562 leukemia, 0.0402 µM; in the assay on UACC-257 melanoma it was 0.633 µM; in the assay on SK-OV-3 ovarian it was 0.278 µM; in the assay on SN12C renal, 0.25 µM; in the assay on MALME-3M melanoma, 0.313 µM. The GI50 with OVCAR-3 ovarian is 0.721 µM and 0.251 µM; in the assay on MOLT-4 leukemia, under 0.0178 µM.

For the origin of these results see PubChem BioAssay (NCI).
